From PMC8242268, “Transcriptomic and Proteomic Analysis of Mannitol-metabolism-associated Genes in Saccharina japonica” (Genomics, Proteomics & Bioinformatics, 2020) come the findings set out here.

In one assay the target is T1, SjaM1PDH2 (Saccharina japonica, UniProt A0A2Z4BWZ7).
T1 construct: codon-optimized synthetic gene, pET32a (EcoRI/NotI), E. coli BL21(DE3), His-resin purified
T1 sequence (A0A2Z4BWZ7 1-355): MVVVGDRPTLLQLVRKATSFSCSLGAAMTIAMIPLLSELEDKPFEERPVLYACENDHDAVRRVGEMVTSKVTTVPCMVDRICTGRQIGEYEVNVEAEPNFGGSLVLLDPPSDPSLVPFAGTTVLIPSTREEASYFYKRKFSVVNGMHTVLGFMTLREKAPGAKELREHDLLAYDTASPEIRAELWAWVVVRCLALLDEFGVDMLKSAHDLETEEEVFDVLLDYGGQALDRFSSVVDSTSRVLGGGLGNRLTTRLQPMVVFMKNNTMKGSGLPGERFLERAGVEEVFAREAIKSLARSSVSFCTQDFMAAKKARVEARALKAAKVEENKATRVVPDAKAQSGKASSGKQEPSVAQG
The assay can be described thus: F6P reduction kinetics, Lineweaver-Burk. The note with it: apparent; co-substrate NADH. It is filed as biochemical.

For another assay, the target named is T2, SjaM1Pase2 (Saccharina japonica, UniProt A0A2Z4BXC0).
T2 construct: codon-optimized synthetic gene, pGEX-6p-1 (EcoRI/NotI), E. coli BL21(DE3), GST-resin purified
T2 sequence (A0A2Z4BXC0 1-327): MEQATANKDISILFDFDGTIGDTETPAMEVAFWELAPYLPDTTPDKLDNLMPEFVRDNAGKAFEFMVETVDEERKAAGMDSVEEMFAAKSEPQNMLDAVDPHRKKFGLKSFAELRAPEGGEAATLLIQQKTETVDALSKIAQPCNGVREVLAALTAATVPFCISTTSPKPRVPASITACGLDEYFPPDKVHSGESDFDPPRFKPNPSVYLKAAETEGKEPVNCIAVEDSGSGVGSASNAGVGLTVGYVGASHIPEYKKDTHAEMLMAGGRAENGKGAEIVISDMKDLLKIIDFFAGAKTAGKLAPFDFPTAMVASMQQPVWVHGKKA
Put plainly: M1P phosphatase kinetics, Lineweaver-Burk. The settings on record: apparent; 100 mM Tris-HCl buffer. The class given is biochemical.

Broadly, the Km is the concentration of substrate that gives half-maximal velocity. On to `O=P(O)(O)OC[C@H]1OC(O)(CO)[C@@H](O)[C@@H]1O` (some centres unmarked) [F6P], for which, on SjaM1PDH2, the Michaelis constant (Km) stood at 2020 µM. On to `O=P(O)(O)OC[C@@H](O)[C@@H](O)[C@H](O)[C@H](O)CO` [M1P], for which the Michaelis constant (Km) at SjaM1Pase2 was 20 µM.
